Test results as given in patent publication US6706664B1, “Benzoxazole compounds, process for the preparation thereof and herbicides” (UBE Industries, Ltd., priority 1999, dated 2004).

Experiments:
Set-up in all cases: key: 0: normal development; 1: Less damaged; 2: Slightly damaged; 3: Moderately damaged; 4: Severely damaged; 5: All killed
annual bluegrass [1] = assay: Foliar spread test for upland field; assay type: in vivo, Poa annua; conditions: foliar spray 500 ppm, 3 weeks, rank vs non-treated
Summary of the method: (§1)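 Two-week-old glasshouse seedlings on volcanic ash soil were treated by foliar spray at 500 ppm, with 0.5% surfactant in the diluent. Effects were graded visually after three weeks, from 0 for no injury to 5 for complete kill.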

velvetleaf = assay: Foliar spread test for upland field; assay type: in vivo, Abutilon theophrasti; conditions: foliar spray 500 ppm, 3 weeks, rank vs non-treated
Summary of the method: as §1

common lambsquartes = assay: Foliar spread test for upland field; assay type: in vivo, Chenopodium album; conditions: foliar spray 500 ppm, 3 weeks, rank vs non-treated
Summary of the method: as §1

blackgrass [2] = assay: Foliar spread test for upland field; assay type: in vivo, Alopecurus aegualis; conditions: foliar spray 500 ppm, 3 weeks, rank vs non-treated
Summary of the method: as §1

monochoria = assay: Herbicidal test for paddy field; assay type: in vivo, Monochoria vaginalis; conditions: paddy field pot, 500 g/ha dropwise at 1.5 leaf stage of barnyardgrass, 3 weeks, rank vs non-treated
Summary of the method: (§2)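 Under flooded conditions (3 cm water over Ube soil), each compound was delivered by pipet as a diluted wettable powder (0.05% surfactant) at 500 g/ha, timed to 1.5-leaf barnyardgrass. Plants stayed 3 weeks in a 25° C glasshouse before injury was graded from 0 (normal) to 5 (all killed).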

livid amaranth [3] = assay: Soil treatment test for upland field; assay type: in vivo, Amaranthus lividus; conditions: 500 g/ha, glass house 25° C., 3 weeks
Summary of the method: (§3)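 Soil treatment, 500 g/ha, sprayed onto soil surface after sowing; alluvial Ube soil; 0.05% surfactant in diluent; glasshouse, avg 25° C, 3 wk; visual score 0–5 (5 = all killed).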

Large crabgrass [4] = assay: Foliar spread test for upland field; assay type: in vivo, Digitaria adscendens; conditions: foliar spray 500 ppm, 3 weeks, rank vs non-treated
Summary of the method: as §1

green foxtail [5] = assay: Soil treatment test for upland field; assay type: in vivo, Setaria viridis; conditions: 500 g/ha, glass house 25° C., 3 weeks
Summary of the method: as §3

annual bluegrass [6] = assay: Soil treatment test for upland field; assay type: in vivo, Poa annua; conditions: 500 g/ha, glass house 25° C., 3 weeks
Summary of the method: as §3

blackgrass [7] = assay: Soil treatment test for upland field; assay type: in vivo, Alopecurus aegualis; conditions: 500 g/ha, glass house 25° C., 3 weeks
Summary of the method: as §3

green foxtail [8] = assay: Foliar spread test for upland field; assay type: in vivo, Setaria viridis; conditions: foliar spray 500 ppm, 3 weeks, rank vs non-treated
Summary of the method: as §1

Large crabgrass [9] = assay: Soil treatment test for upland field; assay type: in vivo, Digitaria adscendens; conditions: 500 g/ha, glass house 25° C., 3 weeks
Summary of the method: as §3

young rice plant = assay: Herbicidal test for paddy field; assay type: in vivo; conditions: paddy field pot, 500 g/ha dropwise at 1.5 leaf stage of barnyardgrass, 3 weeks, rank vs non-treated
Summary of the method: as §2

livid amaranth [10] = assay: Foliar spread test for upland field; assay type: in vivo, Amaranthus lividus; conditions: foliar spray 500 ppm, 3 weeks, rank vs non-treated
Summary of the method: as §1

sugar beat = assay: Foliar spread test for upland field; assay type: in vivo; conditions: foliar spray 500 ppm, 3 weeks, rank vs non-treated
Summary of the method: (§4)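 Crop seeds sown in volcanic ash soil in Wagner pots were raised about 2 weeks in a glasshouse, then sprayed with wettable-powder formulations diluted to 500 ppm in water with 0.5% surfactant. After 3 weeks at an average 25° C., injury was scored 0 (normal) to 5 (all killed).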

solgum = assay: Foliar spread test for upland field; assay type: in vivo; conditions: foliar spray 500 ppm, 3 weeks, rank vs non-treated
Summary of the method: as §4

wheat = assay: Foliar spread test for upland field; assay type: in vivo; conditions: foliar spray 500 ppm, 3 weeks, rank vs non-treated
Summary of the method: as §4

corn = assay: Foliar spread test for upland field; assay type: in vivo; conditions: foliar spray 500 ppm, 3 weeks, rank vs non-treated
Summary of the method: as §4

morning glory = assay: Foliar spread test for upland field; assay type: in vivo, Ipomoea spps.; conditions: foliar spray 500 ppm, 3 weeks, rank vs non-treated
Summary of the method: as §1

| Compound | Effects Annual bluegrass (annual bluegrass [1]) | Effects Velvetleaf (velvetleaf) | Effects Common lambsquarters (common lambsquartes) | Effects Blackgrass (blackgrass [2]) | Effect Monochoria (monochoria) | Effects Livid amaranth (livid amaranth [3]) | Effects Large crabgrass (Large crabgrass [4]) | Effects Green foxtail (green foxtail [5]) | Effects Annual bluegrass (annual bluegrass [6]) | Effects Blackgrass (blackgrass [7]) | Effects Green foxtail (green foxtail [8]) | Effects Large crabgrass (Large crabgrass [9]) | Effect Young rice plant (young rice plant) | Effects Livid amaranth (livid amaranth [10]) | Effects Sugar beat (sugar beat) | Effects Solgum (solgum) | Effects Wheat (wheat) | Effects Corn (corn) | Effects Morning glory (morning glory) |
| --- | --- | --- | --- | --- | --- | --- | --- | --- | --- | --- | --- | --- | --- | --- | --- | --- | --- | --- | --- |
| CCCC(Oc1cccc(C(F)(F)F)c1)c1nc2cc(Cl)ccc2o1 (stereo not drawn) [Compound 142, 1-(5-chlorobenzoxazol-2-yl)-1-(3-(trifluoromethyl)phenoxy)butane] | 3 | 3 | 4 | 2 | 5 | 5 | 3 | 5 | 5 | 5 | 2 | 5 | 1 | 4 | 3 | 2 | 3 | 3 | 3 |
| CCC(Oc1cccc(C(F)(F)F)c1)c1nc2cc(C#N)ccc2o1 (stereo not drawn) [Compound 190] | 4 | 4 | 4 | 3 | 5 | 5 | 3 | 5 | 5 | 3 | 5 | 5 | 3 | 5 | 3 | 3 | 2 | 2 | 3 |
| CCCC(Oc1cccc(C(F)(F)F)c1)c1nc2cc(C#N)ccc2o1 (stereo not drawn) [Compound 192] | 4 | 3 | 4 | 2 | 5 | 5 | 3 | 5 | 5 | 5 | 5 | 5 | 1 | 4 | 4 | 2 | 2 | 2 | 2 |
| CCCC(Oc1ccc(F)c(C(F)(F)F)c1)c1nc2cc(C(F)(F)F)ccc2o1 (stereo not drawn) [Compound 199] | 2 | 4 | 4 | 2 | 5 | 5 | 2 | 5 | 5 | 2 | 2 | 5 | 1 | 4 | 3 | 1 | 1 | 2 | 4 |
| CCCC(Oc1cccc(C(F)(F)F)c1)c1nc2cc(C(F)(F)F)ccc2o1 (stereo not drawn) [Compound 200] | 4 | 2 | 4 | 2 | 5 | 5 | 3 | 5 | 5 | 4 | 5 | 5 | 0 | 4 | 4 | 2 | 2 | 2 | 3 |
| CCC(Oc1ccc(F)c(C(F)(F)F)c1)c1nc2cc(F)c(F)cc2o1 (stereo not drawn) [Compound 284] | 3 | 2 | 4 | 2 | 5 | 5 | 4 | 5 | 5 | 5 | 4 | 5 | 2 | 5 | 4 | 3 | 2 | 3 | 3 |
| CCC(Oc1cccc(C(F)(F)F)c1)c1nc2cc(C#N)c(C#N)cc2o1 (stereo not drawn) [Compound 315] | 2 | 4 | 5 | 2 | 4 | 5 | 2 | 5 | 5 | 5 | 5 | 5 | 1 | 5 | 5 | 2 | 2 | 1 | 3 |
| CCC(Oc1cccc(C(F)(F)F)c1)c1nc2cc(Cl)c(C)cc2o1 (stereo not drawn) [Compound 339, 1-(5-chloro-6-methylbenzoxazol-2-yl)-1-(3-(trifluoromethyl)phenoxy)propane] | 2 | 2 | 4 | 2 | 5 | 5 | 3 | 5 | 5 | 3 | 2 | 5 | 1 | 4 | 3 | 1 | 1 | 2 | 2 |
| CCC(Oc1ccc(F)c(C(F)(F)F)c1)c1nc2cc(Cl)c(C)cc2o1 (stereo not drawn) [Compound 340] | 3 | 4 | 4 | 2 | 5 | 5 | 4 | 5 | 5 | 4 | 4 | 5 | 0 | 4 | 3 | 2 | 2 | 2 | 3 |
